Results published in patent US12655116B2, “Substituted isophthalic acid diamides” (Bayer Aktiengesellschaft, priority 2020, dated 2026).

Columns and labels:
[1] = system: VERPE; test: Pre-emergence herbicidal action against VERPE; format: in vivo, Veronica persica; settings: dosage 80 g/ha
In short: (§1)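 Visual rating at 3 weeks vs untreated pots; 0–100% scale, 100% = plants died. Treatment: aqueous WP/EC spray onto covering soil, 600–800 l/ha, 0.2% wetter, seeds in sandy loam.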

[2] = system: MATIN; test: Pre-emergence herbicidal action against MATIN; format: in vivo, Matricaria inodora
In short: as §1

[3] = system: ALOMY; test: Pre-emergence herbicidal action against ALOMY; format: in vivo, Alopecurus myosuroides; settings: pre-emergence
In short: as §1

[4] = system: AMARE; test: Pre-emergence herbicidal action against AMARE; format: in vivo, Amaranthus retroflexus
In short: as §1

[5] = system: SETVI; test: Pre-emergence herbicidal action against SETVI; format: in vivo, Setaria viridis
In short: as §1

[6] = system: VIOTR; test: Pre-emergence herbicidal action against VIOTR; format: in vivo, Viola tricolor
In short: as §1

[7] = system: AVEFA; test: Pre-emergence herbicidal action against AVEFA; format: in vivo, Avena fatua; settings: 80 g/ha, pre-emergence
In short: as §1

[8] = system: PHBPU; test: Post-emergence herbicidal action against PHBPU; format: in vivo, Pharbitis purpurea
In short: (§2)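 Weeds in sandy loam soil received a post-emergence spray at the one-leaf stage. Compounds were applied as WP or EC in water, 600 to 800 l/ha, with 0.2% wetting agent. Activity in % was judged visually after roughly 3 weeks against untreated plants.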

[9] = system: ECHCG; test: Post-emergence herbicidal action against ECHCG; format: in vivo, Echinochloa crus-galli; settings: dosage 20 g/ha
In short: as §2

[10] = system: MATIN; test: Post-emergence herbicidal action against MATIN; format: in vivo, Matricaria inodora
In short: as §2

[11] = system: ABUTH; test: Pre-emergence herbicidal action against ABUTH; format: in vivo, Abutilon theophrasti
In short: as §1

[12] = system: STEME; test: Pre-emergence herbicidal action against STEME; format: in vivo, Stellaria media
In short: as §1

[13] = system: ABUTH; test: Post-emergence herbicidal action against ABUTH; format: in vivo, Abutilon theophrasti; settings: visual assessment about 3 weeks after treatment vs untreated controls
In short: as §2

[14] = system: AVEFA; test: Post-emergence herbicidal action against AVEFA; format: in vivo, Avena fatua; settings: 20 g/ha, visual assessment about 3 weeks after treatment, 100% = plants have died, 0% = like control plants
In short: as §2

[15] = system: DIGSA; test: Pre-emergence herbicidal action against DIGSA; format: in vivo, Digitaria sanguinalis
In short: as §1

[16] = system: STEME; test: Post-emergence herbicidal action against STEME; format: in vivo, Stellaria media; settings: 20 g/ha
In short: as §2

[17] = system: POLCO; test: Pre-emergence herbicidal action against POLCO; format: in vivo, Polygonum convolvulus
In short: as §1

[18] = system: VIOTR; test: Post-emergence herbicidal action against VIOTR; format: in vivo, Viola tricolor; settings: 20 g/ha
In short: as §2

[19] = system: VERPE; test: Post-emergence herbicidal action against VERPE; format: in vivo, Veronica persica; settings: 20 g/ha
In short: as §2

[20] = system: AMARE; test: Post-emergence herbicidal action against AMARE; format: in vivo, Amaranthus retroflexus; settings: 20 g/ha, visual assessment about 3 weeks after treatment, 100% = plants have died, 0% = like control plants
In short: as §2

[21] = system: ECHCG; test: Pre-emergence herbicidal action against ECHCG; format: in vivo, Echinochloa crus-galli; settings: Echinochloa crus-galli, 504 h, 80 g/ha
In short: as §1

[22] = system: LOLRI; test: Pre-emergence herbicidal action against LOLRI; format: in vivo, Lolium rigidum; settings: Lolium rigidum, 504 h, 80 g/ha
Description: Seeds of monocotyledonous and dicotyledonous weed plants and crop plants are laid out in sandy loam soil in wood-fiber pots and covered with soil. The compounds of the invention, formulated in the form of wettable powders (WP) or as emulsion concentrates (EC), are then applied to the surface of the covering soil in the form of an aqueous suspension or emulsion at a water application rate equivalent to 600 to 800 l/ha, with addition of 0.2% wetting agent. After the treatment, the pots are placed in a greenhouse and kept under good growth conditions for the trial plants. The damage to the test plants is scored visually after a test period of 3 weeks by comparison with untreated controls (herbicidal activity in percent (%): 100% activity=the plants have died, 0% activity=like control plants). […] The tables below illustrate, in an illustrative manner, the post-emergence herbicidal action of the compounds of the invention, the herbicidal activity being stated in percent.

[23] = system: DIGSA; test: Post-emergence herbicidal action against DIGSA; format: in vivo, Digitaria sanguinalis; settings: Digitaria sanguinalis, 504 h
In short: as §2

[24] = 80 g/ha, scored visually after 3 weeks vs untreated controls (100% = plants have died, 0% = like control plants)

## CCn1nnnc1NC(=O)c1ccc(C(F)F)c(C(=O)NC)c1C [Example 2-44]
[1]
  Pre-emergence action against VERPE in %: 90%
[2]; dosage 20 g/ha
  Pre-emergence action against MATIN in %: 90%
[2]; dosage 80 g/ha
  Pre-emergence action against MATIN in %: 100%
[3]; [24]
  Pre-emergence action against ALOMY (herbicidal activity): 80%
[4]; 20 g/ha, scored visually after 3 weeks vs untreated controls, 100% = plants have died, 0% = like control plants
  Pre-emergence action against AMARE in %: 100%
[4]; [24]
  Pre-emergence action against AMARE in %: 100%
[5]; dosage 80 g/ha
  Pre-emergence action against SETVI in %: 100%
[6]; dosage 20 g/ha
  Pre-emergence action against VIOTR in %: 100%
[6]; dosage 80 g/ha
  Pre-emergence action against VIOTR in %: 100%
[7]
  Pre-emergence action against AVEFA in %: 90%
[8]; dosage 5 g/ha
  Post-emergence action against PHBPU in %: 80%
[8]; dosage 20 g/ha
  Post-emergence action against PHBPU in %: 80%
[9]
  Post-emergence action against ECHCG in %: 80%
[10]; dosage 5 g/ha
  Post-emergence action against MATIN in %: 80%
[10]; dosage 20 g/ha
  Post-emergence action against MATIN in %: 80%
[11]; [24]
  Pre-emergence action against ABUTH (herbicidal activity): 100%
[11]; dosage 20 g/ha, scored visually after 3 weeks vs untreated controls, 100% = plants have died, 0% = like control plants
  Pre-emergence action against ABUTH (herbicidal activity in percent): 100%
[12]; dosage 20 g/ha
  Pre-emergence action against STEME in %: 90%
[12]; dosage 80 g/ha
  Pre-emergence action against STEME in %: 100%
[13]; dosage 5 g/ha
  Post-emergence action against ABUTH in %: 80%
[13]; dosage 20 g/ha
  Post-emergence action against ABUTH in %: 90%
[14]
  Post-emergence action at 20 g/ha against AVEFA in %: 80%
[15]; dosage 20 g/ha
  Pre-emergence action against DIGSA in %: 100%
[15]; dosage 80 g/ha
  Pre-emergence action against DIGSA in %: 100%
[16]
  Post-emergence action against STEME in %: 80%
[17]; dosage 20 g/ha
  Pre-emergence action against POLCO in %: 80%
[17]; dosage 80 g/ha
  Pre-emergence action against POLCO in %: 90%
[18]
  Post-emergence action against VIOTR in %: 80%
[19]
  Post-emergence action against VERPE in %: 80%
[20]
  Post-emergence action at 20 g/ha against AMARE in %: 100%

## Cn1nnnc1NC(=O)c1ccc(I)c(C(=O)NC2CC2)c1Cl [Example 1-197]
[2]; Tripleurospermum inodorum, 504 h, dosage 20 g/ha
  pest or weed control at 20 g/ha: 90%
[2]; Tripleurospermum inodorum, 504 h, dosage 80 g/ha
  pest or weed control at 80 g/ha: 100%
[3]; Alopecurus myosuroides, 504 h, 80 g/ha, scored visually after 3 weeks vs untreated controls (100% = plants have died, 0% = like control plants)
  pest or weed control at 80 g/ha: 100%
[3]; Alopecurus myosuroides, 504 h, 20 g/ha, scored visually after 3 weeks, 100% = plants have died, 0% = like control plants
  pest or weed control at 20 g/ha: 100%
[4]; Amaranthus retroflexus, 504 h, 20 g/ha, scored visually after 3 weeks vs untreated controls, 100% = plants have died, 0% = like control plants
  pest or weed control at 20 g/ha: 100%
[4]; Amaranthus retroflexus, 504 h, 80 g/ha, scored visually after 3 weeks vs untreated controls, 100% = plants have died, 0% = like control plants
  pest or weed control at 80 g/ha: 100%
[5]; Setaria viridis, 504 h, dosage 20 g/ha
  pest or weed control at 20 g/ha: 100%
[5]; Setaria viridis, 504 h, dosage 80 g/ha
  pest or weed control at 80 g/ha: 100%
[6]; Viola tricolor, 504 h, dosage 20 g/ha
  pest or weed control at 20 g/ha: 100%
[6]; Viola tricolor, 504 h, dosage 80 g/ha
  pest or weed control at 80 g/ha: 100%
[7]; Avena fatua, 504 h
  pest or weed control at 80 g/ha: 100%
[21]
  pest or weed control at 80 g/ha: 90%
[8]; Ipomoea purpurea, 504 h, dosage 20 g/ha
  pest or weed control at 20 g/ha: 90%
[9]; Echinochloa crus-galli, 504 h
  pest or weed control at 20 g/ha: 90%
[11]; Abutilon theophrasti, 504 h, 80 g/ha, scored visually after 3 weeks vs untreated controls (100% = plants have died, 0% = like control plants)
  pest or weed control at 80 g/ha: 100%
[11]; Abutilon theophrasti, 504 h, dosage 20 g/ha, scored visually after 3 weeks vs untreated controls, 100% = plants have died, 0% = like control plants, read-out: Pre-emergence action against ABUTH (herbicidal activity in percent)
  pest or weed control at 20 g/ha: 100%
[13]; Abutilon theophrasti, 504 h, dosage 20 g/ha
  pest or weed control at 20 g/ha: 100%
[15]; Digitaria sanguinalis, 504 h, dosage 20 g/ha
  pest or weed control at 20 g/ha: 100%
[15]; Digitaria sanguinalis, 504 h, dosage 80 g/ha
  pest or weed control at 80 g/ha: 100%
[18]; Viola tricolor, 504 h
  pest or weed control at 20 g/ha: 100%
[22]
  pest or weed control at 80 g/ha: 80%
[19]; Veronica persica, 504 h
  pest or weed control at 20 g/ha: 80%
[20]; Amaranthus retroflexus, 504 h
  pest or weed control at 20 g/ha: 100%
[23]; 5 g/ha
  pest or weed control at 5 g/ha: 100%
[23]; 20 g/ha
  pest or weed control at 20 g/ha: 100%
